According to article PMC11696576, “Next generation thiazolyl ketone inhibitors of cytosolic phospholipase A2 α for targeted cancer therapy” (Nature Communications, 2025):
Values joined by “and” are separate entries in the source; they are usually repeats but may differ in a detail not shown here. Equal values may be shown once.

Tests used:
CCRF-CEM cells = assay: intracellular ROS, ROS-red staining and flow cytometry, CCRF-CEM; format: cell-based, human; set-up: ROS Negative Cells: unit not given here; details: for ROS Negative Cells / ROS Positive Cells: listed as AVX420
Experimental: Data are the mean ± stdev of 3 biological replicates. […] Data are the mean ± stdev of 3 biological replicates.
Rather, when combined with AVX420, exogenous AA augmented cell death (Fig. 6e). […] The response occurred within 1 h, peaked at 8–12 h, and preceded the loss of cell viability (Fig. S9a, b).
After treatment, cells were stained with cellular ROS Assay Kit (Cat. No. ab186029; Abcam, Cambridge, United Kingdom) following the manufacturer’s instructions, and ROS-positive cells were quantified by flow cytometry using either the NovoCyte flow cytometer, and Novoexpress Software v1.5.0 from Agilent Technologies (Santa Clara, USA) or the CytoFLEX flow cytometer and CytExpert analysis software v 2.5 from Beckman Coulter (California, United States). An example showing the gating strategy used to assess ROS-Red staining is found in Fig. S9d.
Figure S9. Intracellular ROS accumulation and cell death. a. Time dependency of the in-crease in iROS following treatment with AVX420 in CCRF-CEM cells as measured by ROS-red stain-ing. Data are the mean ±stdev from ≥2 biological replicates b. […]
±stdev of ≥2 biological replicates c. intracellular ROS measurements in CCRF-CEM cells treated with 0.5 µM AVX420 in the presence of 20 µM arachidonic acid (AA) or 5 µM liproxstatin (Lip) for 4 hours. Data are the mean ± stdev of 2 biological replicates. d. […]
analysis of ROS Red staining by flow cytometry. (i) Gating of live cells using FSC-H versus SSC-H.
(ii) Gating based on ROS Deep Red staining under control conditions and after treatment with (iii) […]
(1 picture or pasted object on this page, not shown here)

MV-4-11 cells = assay: cell viability, resazurin assay, MV-4-11; format: cell-based, human; details: for cell viability relative to 0 µM = 100 (Figure S7b): MV-4-11, rep1-4, listed as AVX420
Source text: Bjørn Tore Gjertsen (University of Bergen, Norway). […] The cell lines were not authenticated.
Figure S7. Sensitivity of cell lines derived from hematological malignancies. a. cell viability expressed as relative light units ( RLU) is plotted for all cell lines in the screen that were de-rived from hematological malignancies. b. corresponding IC50 values calculated by non-linear regression analysis. c. Cell viability assessed by resazurin assays in MV-4-11 and HL-60 cells.
Data were normalized to the vehicle-treated control (100%) and are the mean of 4 biological replicates ±stdev (MV-4-11) and 5 biological replicates ±stdev (HL-60), Non-linear regres- […]

Jurkat E6.1 cells = assay: cell death, PI exclusion and flow cytometry, time course (Figure S9b); format: cell-based, human; set-up: unit not given here; details: replicates, listed as AVX420
recombinant human cPLA2α = target: T1, recombinant human cPLA2α (Homo sapiens, UniProt P47712); set-up: method as in PMID 25152071; details: previously published data ref 19, cited from earlier work
T1 sequence (P47712 1-749): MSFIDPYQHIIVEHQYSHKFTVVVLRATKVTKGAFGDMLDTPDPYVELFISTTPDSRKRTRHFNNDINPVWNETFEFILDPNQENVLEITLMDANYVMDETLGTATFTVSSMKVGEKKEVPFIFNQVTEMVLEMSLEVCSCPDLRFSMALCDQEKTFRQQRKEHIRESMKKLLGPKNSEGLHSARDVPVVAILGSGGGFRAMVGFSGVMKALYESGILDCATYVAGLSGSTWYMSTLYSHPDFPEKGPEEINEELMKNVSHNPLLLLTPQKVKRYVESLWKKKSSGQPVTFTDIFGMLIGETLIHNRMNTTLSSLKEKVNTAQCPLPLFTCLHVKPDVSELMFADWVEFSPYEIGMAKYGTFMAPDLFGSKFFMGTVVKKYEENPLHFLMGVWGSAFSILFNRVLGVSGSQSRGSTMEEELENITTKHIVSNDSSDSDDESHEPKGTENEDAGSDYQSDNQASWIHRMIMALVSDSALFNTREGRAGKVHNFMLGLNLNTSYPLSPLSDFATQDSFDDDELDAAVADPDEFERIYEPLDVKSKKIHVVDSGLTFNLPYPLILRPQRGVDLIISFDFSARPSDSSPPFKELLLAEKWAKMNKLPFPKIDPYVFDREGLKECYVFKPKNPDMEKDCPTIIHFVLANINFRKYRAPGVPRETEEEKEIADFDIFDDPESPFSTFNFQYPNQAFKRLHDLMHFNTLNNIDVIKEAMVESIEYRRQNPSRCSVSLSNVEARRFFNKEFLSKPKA

CCCCCCCOc1ccc(OCC(=O)c2nc(C(=O)OC)cs2)cc1 [GK420]
time of iROS peak (CCRF-CEM cells; CCRF-CEM (Fig. S9a)): 8 to 12 h | time to iROS response (CCRF-CEM cells; CCRF-CEM (Fig. S9a)): ≤ 1 h | ROS Negative Cells (CCRF-CEM cells; CCRF-CEM, 0.25 µM): 70 and 65 and 71 and 61 | ROS Positive Cells (CCRF-CEM cells; CCRF-CEM, 0.25 µM): 39 and 30 and 35 and 29 | ROS Negative Cells (CCRF-CEM cells; CCRF-CEM, 0.5 µM): 34 and 29 and 30 and 32 and 33 | ROS Positive Cells (CCRF-CEM cells; CCRF-CEM, 0.5 µM): 70 and 68 and 67 and 66 and 71 | ROS Negative Cells (CCRF-CEM cells; CCRF-CEM, 1 µM): 13 and 15 and 12 and 11 | ROS Positive Cells (CCRF-CEM cells; CCRF-CEM, 1 µM): 89 and 87 and 85 and 88 | ROS Negative Cells (CCRF-CEM cells; CCRF-CEM, 2 µM): 8 and 6 and 9 and 10 | ROS Positive Cells (CCRF-CEM cells; CCRF-CEM, 2 µM): 90 and 92 and 94 and 91 | intracellular ROS (iROS) (CCRF-CEM cells; CCRF-CEM, 4 h): dose-dependent increase | IC50 (MV-4-11 cells; Homo sapiens, MV4-11, resazurin assay): 5.7 µM | cell viability relative to 0 µM = 100 (Figure S7b) (MV-4-11 cells; 0.00306 µM): 107.974 and 94.1556 and 88.3103 and 111.814 | cell viability relative to 0 µM = 100 (Figure S7b) (MV-4-11 cells; 0.00919 µM): 108.045 and 93.3168 and 91.3448 and 113.05 | cell viability relative to 0 µM = 100 (Figure S7b) (MV-4-11 cells; 0.02757 µM): 114.954 and 104.137 and 83.3442 and 127.148 | cell viability relative to 0 µM = 100 (Figure S7b) (MV-4-11 cells; 0.08272 µM): 119.708 and 98.9766 and 68.867 and 129.045 | cell viability relative to 0 µM = 100 (Figure S7b) (MV-4-11 cells; 0.24815 µM): 113.432 and 105.146 and 76.1961 and 124.847 | cell viability relative to 0 µM = 100 (Figure S7b) (MV-4-11 cells; 0.74444 µM): 108.976 and 63.5816 and 66.7499 and 99.3411 | cell viability relative to 0 µM = 100 (Figure S7b) (MV-4-11 cells; 2.23333 µM): 103.119 and 55.0214 and 81.5625 and 89.0387 | cell viability relative to 0 µM = 100 (Figure S7b) (MV-4-11 cells; 6.7 µM): 80.6879 and 58.6991 and 52.7781 and 45.3319 | cell viability relative to 0 µM = 100 (Figure S7b) (MV-4-11 cells; 10 µM): 48.2149 and 41.1505 and 41.4878 and 26.408 | cell viability relative to 0 µM = 100 (Figure S7b) (MV-4-11 cells; 30 µM): 40.7033 and 23.5083 and 29.7689 and 20.683 | PI Negative (Figure S9b) (Jurkat E6.1 cells; 1h): 92 and 90 | PI Positive (Figure S9b) (Jurkat E6.1 cells; 1h): 8 and 10 | PI Negative (Figure S9b) (Jurkat E6.1 cells; 2h): 88 and 92 | PI Positive (Figure S9b) (Jurkat E6.1 cells; 2h): 12 and 8 | PI Negative (Figure S9b) (Jurkat E6.1 cells; 4h): 94 and 93 and 92 | PI Positive (Figure S9b) (Jurkat E6.1 cells; 4h): 6 and 7 and 8 | PI Negative (Figure S9b) (Jurkat E6.1 cells; 8h): 91 (2×) and 87 and 88 | PI Positive (Figure S9b) (Jurkat E6.1 cells; 8h): 9 (2×) and 13 and 12 | PI Negative (Figure S9b) (Jurkat E6.1 cells; 12h): 80 and 83 and 82 | PI Positive (Figure S9b) (Jurkat E6.1 cells; 12h): 20 and 17 and 18 | PI Negative (Figure S9b) (Jurkat E6.1 cells; 16h): 70 and 75 and 71 | PI Positive (Figure S9b) (Jurkat E6.1 cells; 16h): 30 and 25 and 29 | PI Negative (Figure S9b) (Jurkat E6.1 cells; 24h): 65 and 67 and 73 | PI Positive (Figure S9b) (Jurkat E6.1 cells; 24h): 35 and 33 and 27

CCCCCCCCc1ccc(OCC(=O)c2nc(C(=O)OC)cs2)cc1 [GK470]
cPLA2α % Inhib (recombinant human cPLA2α; 0.091 mole fraction): >90% | cPLA2α XI(50) (recombinant human cPLA2α; XI(50) ± stdev): 0.011 ± 0.005 mole fraction
